This note sets out measurements from ChEMBL document CHEMBL1157727, “Novel small molecule bradykinin B1 receptor antagonists. Part 1: benzamides and semicarbazides” (Bioorg Med Chem Lett, 2010).

The nature of data set [1]: in vivo. To be noted: Wistar, rat, iv, 1 mg/kg.
Data set [2] is described as follows: in vivo. To be noted: Wistar, rat, 1 mg/kg.
Data set [3] in a line: in vivo. To be noted: Wistar, rat, po, 1 mg/kg.
Data set [4] is described as follows: in vitro. Conditions: rat, microsomes.
A further data set is described as follows: physchem. To be noted: buffer.
A short description of data set [5]: in vitro. To be noted: human, microsomes.

In brackets after ≈: the same amount, converted by molar mass. Where only a bound is given, the exact number is not on record here.

Regarding `CCN(NC(=O)C(F)(F)F)C(=O)N[C@H](C)c1ncc(-c2cc(Cl)cc(Cl)c2OCC(F)F)cc1F`, the clearance in “in vivo [1]” was found to be 7 mL/min/kg. Besides, in the data set “in vivo [2]”, the half-life stood at 135 min. Besides, in the data set “in vivo [3]”, the bioavailability was above 44%.
For the compound `C[C@@H]1CC[C@H](C)N1C(=O)c1ccc([C@@H](C)NC(=O)C2(NC(=O)c3cc(F)cc(C(F)(F)F)c3)CC2)c(F)c1`, the amount remaining at 1 h in the data set “in vitro [4]” is 45%; in the data set “in vitro [5]” it was 9%. Moreover, the solubility in “physchem” came out at 42 µM (≈ 22.6 µg/mL).

As usually defined, the clearance is the rate of elimination divided by the concentration. For orientation: half-life means the time in which the quantity being followed falls by half. The term bioavailability denotes the share of a dose that reaches the circulation, judged against a reference dose that is usually intravenous. High values mean much systemic uptake, low ones little systemic uptake. As a reminder, the fraction remaining is the share of the starting amount still present when the sample was taken. A higher fraction remaining goes with greater stability. A word on the solubility: it is how much of the substance goes into solution per volume. Lower therefore signals a poorly soluble substance.
